Reference: ChEMBL document CHEMBL5705887, “Distinct concentration-dependent effects of the polo-like kinase 1-specific inhibitor GSK461364A, including differential effect on apoptosis” (Cancer Res, 2009)
Calls of active or inactive are those of the source. No cut-off for these calls is given here.

Columns and labels:
SK-OV-3 = assay: Antiproliferative activity against human SK-OV-3 cells assessed as viable cell signal at maximum growth inhibition incubated for 72 hrs by celltiter-glo assay relative to control; assay type: functional
NCI-H460 [1] = assay: Antiproliferative activity against human NCI-H460 cells assessed as growth inhibition incubated for 72 hrs by celltiter-glo assay; assay type: functional
SK-MEL-5 = assay: Antiproliferative activity against human SK-MEL-5 cells assessed as of viable cell signal at minimum maximum cell growth incubated for 72 hrs by celltiter-glo assay relative to control; assay type: functional
HCT-15 [2] = assay: Antiproliferative activity against human HCT-15 cells assessed as of viable cell signal at minimum maximum cell growth incubated for 72 hrs by celltiter-glo assay relative to control; assay type: functional
NCI-H522 = assay: Antiproliferative activity against human NCI-H522 cells assessed as of viable cell signal at minimum maximum cell growth incubated for 72 hrs by celltiter-glo assay relative to control; assay type: functional
A2780 = assay: Antiproliferative activity against human A2780 cells assessed as growth inhibition incubated for 72 hrs by celltiter-glo assay; assay type: functional
BT-549 = assay: Antiproliferative activity against human BT-549 cells assessed as growth inhibition incubated for 72 hrs by celltiter-glo assay; assay type: functional
OVCAR-8 = assay: Antiproliferative activity against human OVCAR-8 cells assessed as growth inhibition incubated for 72 hrs by celltiter-glo assay; assay type: functional
T47D = assay: Antiproliferative activity against human T47D cells assessed as growth inhibition incubated for 72 hrs by celltiter-glo assay; assay type: functional
U-87 MG [3] = assay: Antiproliferative activity against human U-87 MG cells assessed as of viable cell signal at minimum maximum cell growth incubated for 72 hrs by celltiter-glo assay relative to control; assay type: functional, U-87MG ATCC
A549 = assay: Induction of mitotic arrest in human A549 cells assessed as disordered spindle formation at 313 nmol/L incubated for 16 hrs by alpha-tubulin/DAPI staining based confocal microscopic analysis; assay type: functional, cell-based
PANC-1 = assay: Antiproliferative activity against human PANC-1 cells assessed as of viable cell signal at minimum maximum cell growth incubated for 72 hrs by celltiter-glo assay relative to control; assay type: functional
[4] = molecular target: Ribosomal protein S6 kinase alpha-1 (Homo sapiens) (UniProt Q15418); assay: Inhibition of N-terminal his6-tagged recombinant human RSK1 (2 to end residues) expressed in baculovirus Sf21 insect cells at 10 uM relative to control
Chain of Ribosomal protein S6 kinase alpha-1 (Homo sapiens) (Q15418 whole entry): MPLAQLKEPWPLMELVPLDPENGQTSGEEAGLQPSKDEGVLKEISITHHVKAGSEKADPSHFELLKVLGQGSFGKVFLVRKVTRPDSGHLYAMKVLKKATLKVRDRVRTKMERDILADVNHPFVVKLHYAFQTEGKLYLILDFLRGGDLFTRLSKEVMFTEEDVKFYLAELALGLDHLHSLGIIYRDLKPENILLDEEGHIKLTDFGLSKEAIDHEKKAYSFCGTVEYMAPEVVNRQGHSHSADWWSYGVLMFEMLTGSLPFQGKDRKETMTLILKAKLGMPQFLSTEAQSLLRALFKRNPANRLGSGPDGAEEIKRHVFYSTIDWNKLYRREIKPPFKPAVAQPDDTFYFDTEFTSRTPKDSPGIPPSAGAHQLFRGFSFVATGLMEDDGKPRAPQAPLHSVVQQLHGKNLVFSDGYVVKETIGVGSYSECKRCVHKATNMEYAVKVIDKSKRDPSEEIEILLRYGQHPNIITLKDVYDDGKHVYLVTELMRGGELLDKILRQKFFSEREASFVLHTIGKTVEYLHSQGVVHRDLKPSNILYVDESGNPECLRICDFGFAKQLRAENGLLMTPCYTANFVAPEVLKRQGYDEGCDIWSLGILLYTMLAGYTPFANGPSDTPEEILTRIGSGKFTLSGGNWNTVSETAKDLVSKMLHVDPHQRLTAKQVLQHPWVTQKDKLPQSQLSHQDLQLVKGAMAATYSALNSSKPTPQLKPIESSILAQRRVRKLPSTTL

NCI-H1155 = assay: Antiproliferative activity against human NCI-H1155 cells assessed as growth inhibition incubated for 72 hrs by celltiter-glo assay; assay type: functional
H322 = assay: Antiproliferative activity against human H322 cells assessed as growth inhibition incubated for 72 hrs by celltiter-glo assay; assay type: functional; conditions: NCI-H322
NCI-H460 [5] = assay: Antiproliferative activity against human NCI-H460 cells assessed as viable cell signal at maximum growth inhibition incubated for 72 hrs by celltiter-glo assay relative to control; assay type: functional
[6] = molecular target: Serine/threonine-protein kinase 10 (Homo sapiens) (UniProt O94804); assay: Inhibition of N-terminal his6-tagged recombinant human LOK (1 to 348 residues) expressed in baculovirus Sf21 cells at 10 uM relative to control
Chain of Serine/threonine-protein kinase 10 (Homo sapiens) (O94804 whole entry, looked up, the tested form may be a part): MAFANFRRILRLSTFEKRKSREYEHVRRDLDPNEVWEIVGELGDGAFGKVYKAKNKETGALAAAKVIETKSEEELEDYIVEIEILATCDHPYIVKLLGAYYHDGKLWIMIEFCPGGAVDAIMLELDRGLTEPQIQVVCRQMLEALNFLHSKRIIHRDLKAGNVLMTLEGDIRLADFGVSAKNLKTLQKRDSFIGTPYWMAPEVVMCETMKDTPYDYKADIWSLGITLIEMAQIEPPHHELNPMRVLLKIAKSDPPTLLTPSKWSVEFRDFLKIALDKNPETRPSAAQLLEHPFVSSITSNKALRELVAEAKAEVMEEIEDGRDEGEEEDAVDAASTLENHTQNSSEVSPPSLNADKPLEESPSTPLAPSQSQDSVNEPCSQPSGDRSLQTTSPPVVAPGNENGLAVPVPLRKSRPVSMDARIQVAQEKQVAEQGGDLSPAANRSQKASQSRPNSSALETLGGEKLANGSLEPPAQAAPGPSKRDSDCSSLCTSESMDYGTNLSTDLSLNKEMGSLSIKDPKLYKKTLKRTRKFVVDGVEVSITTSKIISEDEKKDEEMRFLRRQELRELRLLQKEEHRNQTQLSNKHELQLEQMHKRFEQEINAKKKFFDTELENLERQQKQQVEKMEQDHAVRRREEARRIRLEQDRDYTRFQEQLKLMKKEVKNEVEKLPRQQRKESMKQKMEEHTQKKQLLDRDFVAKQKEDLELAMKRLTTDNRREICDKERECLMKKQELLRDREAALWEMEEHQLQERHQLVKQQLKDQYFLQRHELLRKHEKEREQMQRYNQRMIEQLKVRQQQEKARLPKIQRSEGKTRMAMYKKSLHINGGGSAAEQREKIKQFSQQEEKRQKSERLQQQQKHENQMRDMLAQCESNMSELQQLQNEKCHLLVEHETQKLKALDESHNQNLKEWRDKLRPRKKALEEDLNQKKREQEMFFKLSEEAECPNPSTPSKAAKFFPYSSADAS

[7] = molecular target: Serine/threonine-protein kinase PLK3 (Homo sapiens) (UniProt Q9H4B4); assay: Inhibition of N-terminal his6-tagged recombinant human PLK3 (19 to 301 residues) expressed in baculovirus Sf21 insect cells at 10 uM relative to control
Chain of Serine/threonine-protein kinase PLK3 (Homo sapiens) (Q9H4B4 whole entry, looked up, the tested form may be a part): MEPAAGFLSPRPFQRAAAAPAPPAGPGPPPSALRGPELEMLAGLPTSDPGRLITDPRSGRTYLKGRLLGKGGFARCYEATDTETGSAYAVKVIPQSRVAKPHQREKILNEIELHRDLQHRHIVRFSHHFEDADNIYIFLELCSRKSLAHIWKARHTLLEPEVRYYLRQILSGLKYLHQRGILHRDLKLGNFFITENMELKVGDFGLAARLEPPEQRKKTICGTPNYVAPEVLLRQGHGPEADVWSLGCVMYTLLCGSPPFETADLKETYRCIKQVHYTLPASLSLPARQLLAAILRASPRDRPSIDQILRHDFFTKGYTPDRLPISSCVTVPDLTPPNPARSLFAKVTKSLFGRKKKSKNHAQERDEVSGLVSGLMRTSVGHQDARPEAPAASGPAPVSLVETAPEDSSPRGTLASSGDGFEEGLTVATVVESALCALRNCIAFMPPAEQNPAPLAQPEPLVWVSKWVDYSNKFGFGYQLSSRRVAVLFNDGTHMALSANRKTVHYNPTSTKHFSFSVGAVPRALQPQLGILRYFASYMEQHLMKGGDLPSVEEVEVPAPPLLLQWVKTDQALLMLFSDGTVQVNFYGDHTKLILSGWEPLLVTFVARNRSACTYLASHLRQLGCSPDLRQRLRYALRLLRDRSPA

HT-29 = assay: Antiproliferative activity against human HT-29 cells assessed as of viable cell signal at minimum maximum cell growth incubated for 72 hrs by celltiter-glo assay relative to control; assay type: functional
HCT-15 [8] = assay: Antiproliferative activity against human HCT-15 cells assessed as growth inhibition incubated for 72 hrs by celltiter-glo assay; assay type: functional
MDA-MB-468 = assay: Antiproliferative activity against human MDA-MB-468 cells assessed as of viable cell signal at minimum maximum cell growth incubated for 72 hrs by celltiter-glo assay relative to control; assay type: functional
NCI-H157 = assay: Antiproliferative activity against human NCI-H157 cells assessed as viable cell signal at maximum growth inhibition incubated for 72 hrs by celltiter-glo assay relative to control; assay type: functional
A-431 [9] = assay: Antiproliferative activity against human A-431 cells assessed as of viable cell signal at minimum maximum cell growth incubated for 72 hrs by celltiter-glo assay relative to control; assay type: functional
OVCAR-3 = assay: Antiproliferative activity against human OVCAR-3 cells assessed as viable cell signal at maximum growth inhibition incubated for 72 hrs by celltiter-glo assay relative to control; assay type: functional
SK-BR-3 [10] = assay: Antiproliferative activity against human SK-BR-3 cells assessed as viable cell signal at maximum growth inhibition incubated for 72 hrs by celltiter-glo assay relative to control; assay type: functional
SJSA-1 = assay: Antiproliferative activity against human SJSA-1 cells assessed as viable cell signal at maximum growth inhibition incubated for 72 hrs by celltiter-glo assay relative to control; assay type: functional
MX1 = assay: Antiproliferative activity against human MX1 cells assessed as viable cell signal at maximum growth inhibition incubated for 72 hrs by celltiter-glo assay relative to control; assay type: functional
Raji = assay: Antiproliferative activity against human Raji cells assessed as of viable cell signal at minimum maximum cell growth incubated for 72 hrs by celltiter-glo assay relative to control; assay type: functional
NCI-N87 = assay: Antiproliferative activity against human NCI-N87 cells assessed as viable cell signal at maximum growth inhibition incubated for 72 hrs by celltiter-glo assay relative to control; assay type: functional
SK-MEL3 = assay: Antiproliferative activity against human SK-MEL3 cells assessed as growth inhibition incubated for 72 hrs by celltiter-glo assay; assay type: functional
SAOS-2 = assay: Antiproliferative activity against human SAOS-2 cells assessed as of viable cell signal at minimum maximum cell growth incubated for 72 hrs by celltiter-glo assay relative to control; assay type: functional
U-87 MG [11] = assay: Antiproliferative activity against human U-87 MG cells assessed as growth inhibition incubated for 72 hrs by celltiter-glo assay; assay type: functional, U-87MG ATCC
ASPC1 = assay: Antiproliferative activity against human ASPC1 cells assessed as viable cell signal at maximum growth inhibition incubated for 72 hrs by celltiter-glo assay relative to control; assay type: functional
HCC1954 = assay: Antiproliferative activity against human HCC1954 cells assessed as of viable cell signal at minimum maximum cell growth incubated for 72 hrs by celltiter-glo assay relative to control; assay type: functional
NCI-H1299 = assay: Antiproliferative activity against human NCI-H1299 cells assessed as growth inhibition incubated for 72 hrs by celltiter-glo assay; assay type: functional
Panc 02.03 = assay: Antiproliferative activity against human Panc 02.03 cells assessed as of viable cell signal at minimum maximum cell growth incubated for 72 hrs by celltiter-glo assay relative to control; assay type: functional
[12] = molecular target: Vascular endothelial growth factor receptor 3 (Homo sapiens) (UniProt P35916); assay: Inhibition of N-terminal GST-tagged recombinant human FLT4 (800 to end residues) at 10 uM relative to control
Chain of Vascular endothelial growth factor receptor 3 (Homo sapiens) (P35916 whole entry): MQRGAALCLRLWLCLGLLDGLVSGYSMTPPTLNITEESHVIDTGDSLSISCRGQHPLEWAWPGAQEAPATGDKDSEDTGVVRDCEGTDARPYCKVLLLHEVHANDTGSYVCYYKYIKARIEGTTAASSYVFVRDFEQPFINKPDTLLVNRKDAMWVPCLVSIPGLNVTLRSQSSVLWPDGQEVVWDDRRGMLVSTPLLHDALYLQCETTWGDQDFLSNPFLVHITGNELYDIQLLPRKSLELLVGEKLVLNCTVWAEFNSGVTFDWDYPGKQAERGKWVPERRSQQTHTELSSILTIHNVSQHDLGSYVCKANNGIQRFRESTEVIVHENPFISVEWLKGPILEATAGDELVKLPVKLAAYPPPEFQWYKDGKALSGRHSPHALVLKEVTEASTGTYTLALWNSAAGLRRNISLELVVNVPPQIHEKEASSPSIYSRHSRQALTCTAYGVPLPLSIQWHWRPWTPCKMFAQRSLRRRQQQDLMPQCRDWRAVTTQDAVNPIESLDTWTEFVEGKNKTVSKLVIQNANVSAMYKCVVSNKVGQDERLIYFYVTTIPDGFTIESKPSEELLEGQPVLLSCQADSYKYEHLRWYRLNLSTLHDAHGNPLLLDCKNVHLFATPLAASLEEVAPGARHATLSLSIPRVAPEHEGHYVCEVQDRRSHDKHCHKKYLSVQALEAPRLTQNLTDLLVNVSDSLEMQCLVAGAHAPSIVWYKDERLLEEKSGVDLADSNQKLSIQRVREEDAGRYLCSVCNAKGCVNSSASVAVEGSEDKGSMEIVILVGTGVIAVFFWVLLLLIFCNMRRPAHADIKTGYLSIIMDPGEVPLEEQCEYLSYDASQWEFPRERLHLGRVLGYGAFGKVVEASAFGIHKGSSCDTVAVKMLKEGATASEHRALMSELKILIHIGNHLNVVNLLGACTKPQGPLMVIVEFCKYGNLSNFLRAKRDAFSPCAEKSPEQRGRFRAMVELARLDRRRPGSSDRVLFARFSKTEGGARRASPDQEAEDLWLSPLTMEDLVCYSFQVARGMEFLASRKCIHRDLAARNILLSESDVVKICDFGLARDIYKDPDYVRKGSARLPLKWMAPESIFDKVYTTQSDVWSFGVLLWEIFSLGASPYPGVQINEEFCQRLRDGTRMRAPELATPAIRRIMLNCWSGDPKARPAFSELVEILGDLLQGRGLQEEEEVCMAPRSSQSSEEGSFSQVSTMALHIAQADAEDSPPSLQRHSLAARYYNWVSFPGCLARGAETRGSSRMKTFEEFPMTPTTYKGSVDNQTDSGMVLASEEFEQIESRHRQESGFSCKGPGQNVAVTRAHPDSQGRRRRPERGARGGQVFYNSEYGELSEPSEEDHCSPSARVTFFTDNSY

SK-BR-3 [13] = assay: Antiproliferative activity against human SK-BR-3 cells assessed as growth inhibition incubated for 72 hrs by celltiter-glo assay; assay type: functional
Calu-1 = assay: Antiproliferative activity against human Calu-1 cells assessed as of viable cell signal at minimum maximum cell growth incubated for 72 hrs by celltiter-glo assay relative to control; assay type: functional
A-431 [14] = assay: Antiproliferative activity against human A-431 cells assessed as growth inhibition incubated for 72 hrs by celltiter-glo assay; assay type: functional

SMILES: C[C@@H](Oc1cc(-n2cnc3ccc(CN4CCN(C)CC4)cc32)sc1C(N)=O)c1ccccc1C(F)(F)F [GSK-461364]
- Emax (SK-OV-3): 345%
- GI50 (NCI-H460 [1]): 37.8 nM
- Emin (SK-MEL-5): 84%
- Emin (HCT-15 [2]): 75%
- Emin (NCI-H522): 125%
- GI50 (A2780): 28.1 nM
- GI50 (BT-549): 23.1 nM
- GI50 (OVCAR-8): 20.4 nM
- GI50 (T47D): 9160 nM
- Emin (U-87 MG [3]): 0.1%
- Activity (A549): Active
- Emin (PANC-1): 114.1%
- inhibition [4]: 72%
- GI50 (NCI-H1155): 14.4 nM
- GI50 (H322): 20.2 nM
- Emax (NCI-H460 [5]): 952%
- inhibition [6]: 86%
- inhibition [7]: 64%
- Emin (HT-29): 327.7%
- GI50 (HCT-15 [8]): 90.8 nM
- Emin (MDA-MB-468): 182.2%
- Emax (NCI-H157): 847%
- Emin (A-431 [9]): 151.5%
- Emax (OVCAR-3): 496%
- Emax (SK-BR-3 [10]): 300%
- Emax (SJSA-1): 791%
- Emax (MX1): 498%
- Emin (Raji): 5.1%
- Emax (NCI-N87): 776%
- GI50 (SK-MEL3): 17.6 nM
- Emin (SAOS-2): 83.5%
- GI50 (U-87 MG [11]): 7.45 nM
- Emax (ASPC1): 294%
- Emin (HCC1954): 90.9%
- GI50 (NCI-H1299): 61.4 nM
- Emin (Panc 02.03): 192%
- inhibition [12]: 87%
- GI50 (SK-BR-3 [13]): 15.8 nM
- Emin (Calu-1): 179.8%
- GI50 (A-431 [14]): 16.6 nM
